From the OPERA property sets (Mansouri et al. 2018)
≈ marks a conversion by molar mass, not a printed value.

Details: for solubility: 25 °C

Compound	logP	solubility [µM]
Clc1ccc(Oc2ccccc2Cl)c(Cl)c1	4.96	11.2 (≈ 3.07 µg/mL)
Clc1ccccc1Oc1ccc(Cl)c(Cl)c1Cl	5.72	–
Clc1ccc(Oc2c(Cl)c(Cl)cc(Cl)c2Cl)cc1	6.41	–
Clc1ccc(Oc2ccc(Cl)cc2Cl)cc1	5.53	0.603 (≈ 0.165 µg/mL)
Clc1ccc(Oc2cc(Cl)cc(Cl)c2Cl)cc1	6.01	–
Clc1cc(Cl)c(Oc2cccc(Cl)c2Cl)cc1Cl	6.22	–
Clc1ccc(Oc2ccc(Cl)cc2Cl)c(Cl)c1	5.95	–
Clc1ccc(Oc2ccccc2)c(Cl)c1Cl	5.55	–
Clc1ccc(Oc2cc(Cl)c(Cl)cc2Cl)cc1	5.99	–
Clc1ccc(Oc2c(Cl)cccc2Cl)c(Cl)c1Cl	6.11	–
Clc1cc(Oc2c(Cl)c(Cl)c(Cl)c(Cl)c2Cl)c(Cl)c(Cl)c1Cl	8.07	–
Clc1ccc(Oc2c(Cl)cc(Cl)cc2Cl)cc1	5.92	–
Clc1cc(Cl)c(Oc2c(Cl)c(Cl)c(Cl)c(Cl)c2Cl)cc1Cl	7.81	–
Clc1ccc(Oc2cccc(Cl)c2)cc1	5.13	17 (≈ 4.06 µg/mL)
Clc1ccc(Oc2c(Cl)c(Cl)cc(Cl)c2Cl)c(Cl)c1Cl	7.14	–
Clc1ccc(Oc2c(Cl)c(Cl)c(Cl)c(Cl)c2Cl)cc1Cl	7.31	–
Clc1cc(Oc2ccccc2)cc(Cl)c1Cl	5.7	–
Clc1cc(Cl)c(Oc2ccccc2)c(Cl)c1Cl	5.88	–
Clc1ccc(Oc2ccccc2Cl)cc1Cl	5.5	6.32 (≈ 1.73 µg/mL)
Clc1cccc(Cl)c1Oc1ccccc1	4.64	8.7 (≈ 2.08 µg/mL)

Compound	logP	solubility [µM]
Clc1ccc(Oc2c(Cl)cccc2Cl)cc1Cl	5.7	–
Clc1ccc(Oc2c(Cl)ccc(Cl)c2Cl)c(Cl)c1	6.06	–
Clc1cc(Cl)c(Oc2ccc(Cl)c(Cl)c2Cl)cc1Cl	7.01	–
Clc1cc(Cl)c(Oc2ccccc2)c(Cl)c1	5.32	–
Clc1ccc(Oc2ccccc2)cc1	4.7	–
Clc1cc(Cl)c(Oc2cc(Cl)c(Cl)cc2Cl)c(Cl)c1	6.49	–
Clc1ccc(Oc2cc(Cl)c(Cl)c(Cl)c2Cl)c(Cl)c1	6.72	–
Clc1ccc(Cl)c(Oc2ccc(Cl)c(Cl)c2Cl)c1	6.51	–
Clc1ccc(Oc2cc(Cl)cc(Cl)c2)cc1	5.77	3.02 (≈ 0.826 µg/mL)
Clc1ccc(Oc2c(Cl)c(Cl)cc(Cl)c2Cl)cc1Cl	6.78	–
Clc1cc(Cl)cc(Oc2cc(Cl)c(Cl)cc2Cl)c1	6.66	–
Clc1ccc(Oc2cc(Cl)c(Cl)c(Cl)c2Cl)c(Cl)c1Cl	7.28	–
Clc1ccc(Oc2c(Cl)c(Cl)c(Cl)c(Cl)c2Cl)c(Cl)c1	7.31	–
Clc1cc(Cl)c(Oc2cc(Cl)c(Cl)c(Cl)c2Cl)cc1Cl	7.46	–
Clc1ccc(Cl)c(Oc2cc(Cl)c(Cl)cc2Cl)c1	6.22	–
Clc1ccc(Oc2cc(Cl)c(Cl)c(Cl)c2Cl)cc1	6.61	–
Clc1cc(Cl)c(Cl)c(Oc2cc(Cl)c(Cl)c(Cl)c2)c1	7.01	–
Clc1cccc(Oc2cc(Cl)c(Cl)cc2Cl)c1	6.14	–
Clc1ccc(Oc2ccc(Cl)c(Cl)c2)cc1Cl	6.36	–
Clc1ccc(Oc2c(Cl)cccc2Cl)cc1	5.3	1.23 (≈ 0.337 µg/mL)

Compound	logP	solubility [µM]
Clc1ccc(Oc2c(Cl)ccc(Cl)c2Cl)cc1	5.64	–
Clc1cccc(Oc2ccc(Cl)cc2Cl)c1	5.65	3.62 (≈ 0.99 µg/mL)
Clc1cccc(Oc2ccc(Cl)c(Cl)c2)c1	5.74	3.66 (≈ 1 µg/mL)
Clc1ccc(Oc2cc(Cl)c(Cl)c(Cl)c2Cl)cc1Cl	7.07	–
Clc1ccccc1Oc1ccccc1	4.45	16.6 (≈ 3.4 µg/mL)
Clc1cc(Cl)c(Cl)c(Oc2ccccc2)c1Cl	5.82	–
Clc1ccc(Oc2cc(Cl)cc(Cl)c2Cl)c(Cl)c1	6.54	–
Clc1cc(Cl)c(Oc2ccccc2Cl)cc1Cl	5.97	–
Clc1ccc(Oc2c(Cl)cc(Cl)c(Cl)c2Cl)cc1	6.47	–
Clc1c(Cl)c(Cl)c(Oc2c(Cl)c(Cl)c(Cl)c(Cl)c2Cl)c(Cl)c1Cl	8.16	–
Clc1cc(Cl)c(Oc2c(Cl)cccc2Cl)cc1Cl	5.98	–
Clc1cc(Cl)c(Oc2ccc(Cl)c(Cl)c2)c(Cl)c1	6.44	–
Clc1cccc(Oc2ccccc2)c1Cl	5	–
Clc1cc(Cl)cc(Oc2ccc(Cl)c(Cl)c2)c1	6.22	–
Clc1ccc(Cl)c(Oc2ccccc2)c1Cl	5.35	–
Clc1ccc(Oc2cc(Cl)c(Cl)cc2Cl)c(Cl)c1	6.38	–
Clc1cc(Cl)c(Oc2cc(Cl)c(Cl)cc2Cl)cc1Cl	6.72	–
Clc1cc(Oc2ccc(Cl)c(Cl)c2Cl)cc(Cl)c1Cl	6.99	–
Clc1ccc(Oc2ccc(Cl)c(Cl)c2Cl)c(Cl)c1	6.28	–
Clc1ccc(Oc2c(Cl)cc(Cl)c(Cl)c2Cl)c(Cl)c1	6.84	–

The next lines start with the values.

logP	solubility [µM]	Compound
6.47	–	Clc1ccc(Oc2c(Cl)ccc(Cl)c2Cl)c(Cl)c1Cl
6.58	–	Clc1cc(Cl)cc(Oc2ccc(Cl)c(Cl)c2Cl)c1
5.21	8.7 (≈ 2.08 µg/mL)	Clc1cc(Cl)cc(Oc2ccccc2)c1
4.93	23.4 (≈ 5.6 µg/mL)	Clc1ccc(Oc2ccccc2)c(Cl)c1
6.51	–	Clc1ccc(Oc2ccc(Cl)c(Cl)c2Cl)cc1Cl
6.83	–	Clc1ccc(Oc2cc(Cl)c(Cl)c(Cl)c2)cc1Cl
6.11	–	Clc1ccc(Cl)c(Oc2ccc(Cl)c(Cl)c2)c1
7.13	–	Clc1cc(Cl)c(Oc2c(Cl)c(Cl)cc(Cl)c2Cl)cc1Cl
5.66	3.63 (≈ 0.993 µg/mL)	Clc1ccc(Oc2cc(Cl)ccc2Cl)cc1
6.11	–	Clc1ccc(Oc2c(Cl)cc(Cl)cc2Cl)c(Cl)c1
7.11	–	Clc1cc(Cl)c(Oc2cc(Cl)c(Cl)c(Cl)c2)cc1Cl
6.98	–	Clc1cc(Oc2c(Cl)ccc(Cl)c2Cl)c(Cl)c(Cl)c1Cl
6.82	–	Clc1ccc(Oc2ccc(Cl)c(Cl)c2Cl)c(Cl)c1Cl
7.63	–	Clc1cc(Oc2c(Cl)c(Cl)cc(Cl)c2Cl)c(Cl)c(Cl)c1Cl
5.63	4.9 (≈ 1.34 µg/mL)	Clc1ccc(Oc2cccc(Cl)c2Cl)cc1
5.99	–	Clc1ccc(Oc2cccc(Cl)c2Cl)cc1Cl
6.95	–	Clc1ccc(Oc2c(Cl)c(Cl)c(Cl)c(Cl)c2Cl)cc1
6.65	–	Clc1cc(Oc2c(Cl)ccc(Cl)c2Cl)cc(Cl)c1Cl
4.75	61.6 (≈ 12.6 µg/mL)	Clc1cccc(Oc2ccccc2)c1
6.47	–	Clc1cc(Cl)c(Oc2c(Cl)ccc(Cl)c2Cl)cc1Cl
6.37	–	Clc1c(Cl)c(Cl)c(Oc2ccccc2)c(Cl)c1Cl
5.03	3.02 (≈ 0.722 µg/mL)	Clc1ccc(Oc2ccccc2Cl)cc1

logP	solubility [µM]	Compound
5.78	–	Clc1ccc(Oc2cc(Cl)ccc2Cl)c(Cl)c1
6.13	–	Clc1ccc(Oc2ccc(Cl)c(Cl)c2)c(Cl)c1
5.88	–	Clc1ccc(Oc2cccc(Cl)c2Cl)c(Cl)c1
6.31	–	Clc1ccc(Oc2c(Cl)ccc(Cl)c2Cl)cc1Cl
6.14	–	Clc1ccc(Oc2ccc(Cl)c(Cl)c2Cl)cc1
7.55	–	Clc1cc(Oc2cc(Cl)c(Cl)c(Cl)c2Cl)cc(Cl)c1Cl
5.25	–	Clc1ccc(Oc2ccc(Cl)cc2)cc1
5.88	2.19 (≈ 0.598 µg/mL)	Clc1ccc(Oc2ccc(Cl)c(Cl)c2)cc1
6.13	–	Clc1cc(Cl)cc(Oc2ccc(Cl)cc2Cl)c1
6.52	–	Clc1cc(Cl)c(Cl)c(Oc2ccc(Cl)c(Cl)c2)c1
6.63	–	Clc1ccc(Oc2cc(Cl)c(Cl)c(Cl)c2)c(Cl)c1
5.62	6.47 (≈ 1.77 µg/mL)	Clc1cc(Cl)c(Cl)c(Oc2ccccc2)c1
6.3	–	Clc1ccc(Oc2cc(Cl)c(Cl)c(Cl)c2)cc1
7.78	–	Clc1cc(Oc2cc(Cl)c(Cl)c(Cl)c2Cl)c(Cl)c(Cl)c1Cl
6.6	–	Clc1ccc(Oc2cc(Cl)c(Cl)cc2Cl)cc1Cl
7.84	–	Clc1ccc(Oc2c(Cl)c(Cl)c(Cl)c(Cl)c2Cl)c(Cl)c1Cl
6.3	–	Clc1cccc(Oc2ccc(Cl)c(Cl)c2Cl)c1Cl
6.07	–	Clc1cccc(Oc2ccc(Cl)c(Cl)c2Cl)c1
4.99	19 (≈ 4.55 µg/mL)	Clc1ccc(Oc2ccccc2)cc1Cl
5.13	10.7 (≈ 2.56 µg/mL)	Clc1ccc(Cl)c(Oc2ccccc2)c1
6.65	–	Clc1cc(Cl)c(Cl)c(Oc2cc(Cl)c(Cl)cc2Cl)c1
